The results in this text go back to patent EP0423221B1, “IMMUNOSUPPRESSIVE AGENTS” (THE UNIVERSITY OF SHEFFIELD, priority 1988, dated 1990).

Each structure is given as a SMILES string.

One may read the inhibition as the drop in the measured response relative to a control, in per cent. Low readings indicate a weak effect, high ones a strong effect.

The subject of data set [1] is human mixed lymphocyte reaction. Nature of the data set: human mixed lymphocyte reaction (inhibition of 3H-thymidine incorporation). Format: cell-based. To be noted: for inhibition at 25 µM: Concentration of Solution 25 µM; for EC50: concentration which brings about 50% inhibition of ^3H-thymidine incorporation, read-out: Immunosuppressive activity ED50; for immunosuppressive activity compared with azathioprine: statement in words; for inhibition at 10 µM: Concentration of Solution 10 µM. The source says: Fifteen of these compounds were screened for immunosuppressive activity by means of the human mixed lymphocyte reaction, which is well known and need not be further described here, the results of which are shown in Table 1.
(Dividing cells build labelled thymidine or BrdU into new DNA.)

For `Cn1cnc([N+](=O)[O-])c1Sc1nc2ccccc2o1` [Compound 8], in data set [1] (Homo sapiens, Lymphocyte), the inhibition at 25 µM turned out to be 87%.
In data set [1] (Homo sapiens, Lymphocyte, Concentration of Solution 50 µM), `Cn1cnc([N+](=O)[O-])c1Sc1nc2cc(F)c(Cl)cc2[nH]1` [Compound 4] displayed an inhibition at 50 µM of 59%.
The molecule `Cn1cnc([N+](=O)[O-])c1Sc1ccccn1` [Compound 15] displayed an inhibition at 25 µM in data set [1] (Homo sapiens, Lymphocyte) of 76%.
In data set [1] (Homo sapiens, Lymphocyte), `CCOC(=O)CSc1c([N+](=O)[O-])ncn1C` [Compound 30] displayed an inhibition at 25 µM of 65%.
As to `CCn1c(C)nc([N+](=O)[O-])c1Sc1nc(C)cc(C)n1` [Compound 18], the inhibition at 25 µM in data set [1] (Homo sapiens, Lymphocyte) turned out to be 47%.
In turn, `Cn1cnc([N+](=O)[O-])c1Sc1ncccn1` [Compound 16] showed an inhibition at 25 µM in data set [1] (Homo sapiens, Lymphocyte) of 47%.
Same read-out and setting: under `Cn1cnc([N+](=O)[O-])c1Sc1ccccc1C(=O)O` [Compound 13] stands 34%.
For the molecule `Cn1cnc([N+](=O)[O-])c1Sc1ncnc2nc[nH]c12` [I (azathioprine), azathioprine, reference compound], the “Toxicity LD25” value in the data set with lymphocytes (human) is reported as 42.5. The “Therapeutic index ED50/LD25” value in the data set with lymphocytes (ratio of toxicity and immunosuppressive activity) came out at 5.38. In data set [1] (Homo sapiens, Lymphocyte), the inhibition at 25 µM was determined as 79% and the EC50 was determined as 7.9 µM.
For `Cn1cnc([N+](=O)[O-])c1Sc1ncnc2[nH]c(O)nc12` [Compound 11], the “toxicity to lymphocytes compared with azathioprine” value in the data set with lymphocytes is “much less toxic to the lymphocytes”. Further, in data set [1] (Homo sapiens, Lymphocyte), the EC50 turned out to be 24 µM. Moreover, the “immunosuppressive activity compared with azathioprine” value in data set [1] is “less immunosuppressive than azathioprine”.
With `Cn1ccnc1Sc1c([N+](=O)[O-])ncn1C` [Compound 22], the “toxicity to lymphocytes compared with azathioprine” value in the data set with lymphocytes is “considerably less toxic to lymphocytes”. Further, in data set [1] (Homo sapiens, Lymphocyte), at 10 µM the inhibition was 82% and the EC50 worked out at 3.15 µM. The “immunosuppressive activity compared with azathioprine” value in data set [1] is on record as “substantially more immunosuppressive than azathioprine”.
`Cn1cnc([N+](=O)[O-])c1Sc1ncc[nH]1` [Compound 21]: the “toxicity to lymphocytes compared with azathioprine” value with lymphocytes is reported as “considerably less toxic to lymphocytes”. Also, in data set [1] (Homo sapiens, Lymphocyte), the inhibition at 10 µM is 89% and the EC50 is 2.8 µM. The “immunosuppressive activity compared with azathioprine” value in data set [1] is on record as “substantially more immunosuppressive than azathioprine”.
For `COc1cc2nc(Sc3c([N+](=O)[O-])ncn3C)[nH]c2cc1OC` [Compound 5], in data set [1] (Homo sapiens, Lymphocyte), testing at 25 µM gave an inhibition of 94%.
With `Cn1cnc([N+](=O)[O-])c1Sc1nccc(O)n1` [Compound 19], 25 µM produced 29% inhibition in data set [1] (Homo sapiens, Lymphocyte).
Turning to `Cc1ccc2[nH]c(Sc3c([N+](=O)[O-])ncn3C)nc2c1` [Compound 2], the inhibition at 25 µM in data set [1] (Homo sapiens, Lymphocyte) stood at 86%.
`Cn1cnc([N+](=O)[O-])c1Sc1nc2ccccc2[nH]1` [Compound 1] displayed an inhibition at 36 µM in data set [1] (Homo sapiens, Lymphocyte, Concentration of Solution 36 µM) of 98%.
Turning to `Cn1cnc([N+](=O)[O-])c1Sc1nc2ccccc2s1` [Compound 9], in data set [1] (Homo sapiens, Lymphocyte), the inhibition at 25 µM was 27%.
Turning to `COc1ccc(OC)c2[nH]c(Sc3c([N+](=O)[O-])ncn3C)nc12` [Compound 6], 25 µM produced 41% inhibition in data set [1] (Homo sapiens, Lymphocyte).
